From ChEMBL document CHEMBL4396866, “Discovery and Structure-Based Optimization of Next-Generation Reversible Methionine Aminopeptidase-2 (MetAP-2) Inhibitors” (J Med Chem, 2019)
≈ marks a conversion by molar mass, not a printed value.

Experiments:
[1] = Oral bioavailability in mouse at 50 mg/kg; type: ADME, organism-based; settings: in vivo
[2] = Toxicity in CD-1 nude mouse xenografted with human U87MG cells at 5 to 20 mg/kg, po administered once daily for 12 days measured during compound dosing; type: organism-based; settings: in vivo, 288 h
[3] = Stability in human liver microsomes assessed per mg protein; type: ADME, Microsome
[4] = Stability in mouse liver microsomes assessed per mg protein; type: ADME, Microsome
[5] = Oral bioavailability in mouse at 0.5 mg/kg; type: ADME, organism-based; settings: in vivo
[6] = Volume of distribution at steady state in mouse at 0.2 mg/kg, iv; type: ADME, organism-based; settings: in vivo, read-out: Vdss
[7] = Lipophilicity, log D of the compound at pH 7.4; type: physicochemical; settings: buffer
U-87 MG = assay: Antitumor activity against human U87MG cells xenografted in po dosed CD-1 nude mouse assessed as tumor growth inhibition administered once daily for 12 days; type: functional, organism-based; settings: U-87MG ATCC
[8] = Half life in mouse at 0.2 mg/kg, iv; type: ADME, organism-based; settings: in vivo
[9] = Passive permeability across apical to basal side in human Caco2 cells; type: ADME, cell-based; settings: Caco-2, read-out: permeability
[10] = Solubility of the compound in FeSSIF; type: physicochemical
[11] = Solubility of the compound in FaSSIF; type: physicochemical
[12] = Toxicity in CD-1 nude mouse xenografted with human U87MG cells assessed as body weight loss at 5 to 20 mg/kg, po administered once daily for 12 days measured during compound dosing; type: organism-based; settings: in vivo, 288 h
[13] = Clearance in mouse at 0.2 mg/kg, iv; type: ADME, organism-based; settings: in vivo
[14] = Dissociation constant, pKa of compound; type: physicochemical
[15] = Drug metabolism in DMSO assessed as oxidation by measuring rac-3-Hydroxy-2-oxo-1-phenylpyrrolidine-3-carboxylic Acid (2-Thiophen-2-ylethyl)amide formation incubated at high temperature under stirring condition for 2 days
[16] = Drug metabolism in DMSO assessed as oxidation by measuring rac-3-Hydroxy-2-oxo-1-phenylpyrrolidine-3-carboxylic Acid (2-Thiophen-2-ylethyl)amide formation measured after 2 years

Structure (SMILES)	bioavailability [1] [%]	Activity [2]	Stability [3] [µL/min]	Stability [4] [µL/min]	bioavailability [5] [%]	Vd [6] [L/kg]	logD [7]	TGI (U-87 MG)	half-life [8] [h]	Papp A→B [9] [×10⁻⁶ cm/s]	solubility [10] [µg/mL]	solubility [11] [µg/mL]	Activity [12]	clearance [13] [mL/min/kg]	pKa [14]	Drug metabolism [15]	Drug metabolism [16]
O=C1CCc2cc(N3CC[C@](O)(C(=O)NCc4cc(F)cc(Cl)c4)C3=O)ccc2N1	100	Non-Toxic	< 10	< 10	35	0.78	2	Dose-dependent effect	3	16	334 (≈ 773 µM)	158 (≈ 366 µM)	Non-Toxic	3	11	–	–
O=C(NCCc1cccs1)C1CCN(c2ccccc2)C1=O (configuration not stated)	–	–	–	–	–	–	–	–	–	–	–	–	–	–	–	Metabolite not detected	Metabolite detected
